Drawing on ChEMBL document CHEMBL1130805, “The synthesis and evaluation of benzannelated-azatoxins: the benzazatoxins” (Bioorg Med Chem Lett, 1998), this text covers GI50, IC50 and Activity for 5 compounds.

SMILES strings stand for the structures. pIC50: −log10 of the molar value. Calls of active or inactive are those of the source. The calls are words filed in the database; no cut-off is given here.

The term GI50 denotes the concentration at which growth is held to half of that of the control. Low readings indicate greater sensitivity of the cells, high ones lower sensitivity of the cells. Broadly, the pIC50 is −log10 of the IC50, conventionally taken in molar units. High values mean a small IC50, low ones a large IC50.

In assay [1] the test system is MCF7. The assay is described as follows: Compound was evaluated for growth inhibition against MCF-7 cells using cellular assay. The format is functional. The settings on record: Homo sapiens.
Assay [2] relates to NCI-H520. The assay is described as follows: Compound was evaluated for growth inhibition against NCI-H520 cells using cellular assay. The settings on record: Homo sapiens. The format is functional.
The test system of assay [3] is PC-3. As to the kind of experiment: Compound was evaluated for growth inhibition against PC-3 cells using cellular assay. The format is functional. The following applies: Homo sapiens.
The species entered for assay [4] is Bos taurus. As to the kind of experiment: Compound was evaluated for inhibition of tubulin polymerization in bovine brain tubulin. The format is functional.
Assay [5] concerns the target T1, DNA topoisomerase II (Homo sapiens) (UniProt P11388+Q02880). The assay is described as follows: Compound was evaluated for its ability to affect topoisomerase II inhibition; inactive. The format is protein assay.
Assay [6] has as its target T1, DNA topoisomerase II (Homo sapiens). The assay is described as follows: Compound was evaluated for its ability to affect topoisomerase II inhibition; active. The format is protein assay.

For `COc1cc([C@@H]2c3[nH]c4c(ccc5ccccc54)c3C[C@H]3COC(=O)N32)cc(OC)c1O`, the GI50 in assay [1], in assay [2] and in assay [3] was greater than 50 µM throughout. The pIC50 in assay [4] is 4.29. In addition, in assay [5], the outcome was inactive.
On to `COc1cc2c(c(OC)c1OC)-c1ccc(OC)c(=O)cc1[C@@H](NC(C)=O)CC2` [COLCHICINE], for which the GI50 in assay [1], in assay [2] and in assay [3] was less than 0.05 µM throughout. This compound showed a pIC50 in assay [4] of 4.93. Also, the result in assay [5] was inactive.
Take `COc1cc([C@@H]2c3[nH]c4ccccc4c3C[C@H]3COC(=O)N32)cc(OC)c1O`: the GI50 in assay [1] was 0.25 µM; in assay [2], 0.12 µM; in assay [3] it was 0.2 µM. The same compound had a pIC50 in assay [4] of 4.69. Besides, in assay [6], the outcome was Active.
In the case of `COc1cc([C@@H]2c3[nH]c4ccc5ccccc5c4c3C[C@H]3COC(=O)N32)cc(OC)c1O`, the GI50 in assay [1] stood at 2 µM; in assay [2], 0.8 µM; in assay [3], 2 µM. In addition, the pIC50 in assay [4] was 5.25. In addition, the result in assay [5] was inactive.
As to `COc1cc([C@@H]2c3[nH]c4cc5ccccc5cc4c3C[C@H]3COC(=O)N32)cc(OC)c1O`, the GI50 is 5 µM in assay [1], 4 µM in assay [2] and 10 µM in assay [3]. Further, in assay [4], the pIC50 was 5.17. The outcome in assay [5] was inactive.
